In patent EP0238198A2, “Method of modifying the lipid structure function and expression of cell membranes and pharmaceutical compositions for use therein” (Habib, Nagy Adly, priority 1986, dated 1987):
Read-outs that look alike come from different tables or passages of the source.

System: type 2 herpes simplex virus (HSV)
Test: HSV2 replication in human embryonic lung fibroblasts (virus yield)
Format: cell-based, HSV type 2
Conditions: for inhibition at 100 µM: Human alphaherpesvirus 2, Fibroblast, 28 h, read-out: % reduction in virus yield compared with control cultures
Procedure: Stearic and iodinated stearic acids were assayed for their inhibitory effects on the replication of type 2 herpes simplex virus (HSV) in sub-confluent monolayer cultures of human embryonic lung fibroblasts. […] This was accomplished by reacting hydriodic acid with oleic acid in acetic acid at 20°C. Excess iodine was removed at the end of the reaction by the addition of an excess of sodium thiosulphate, and the product fatty acid was extracted into hexane.
Bovine serum albumin conjugates of the fatty acids (prepared according to the method of A.A.Spector and-J.C.Hoak, J.Anal.Biochem. 1969, 32, 297-302) were added to the cell culture medium at various concentrations in the range 25 - 100 micromolar final concentration and at various times before and after (from 0 to 12 hours) infection with partially purified clinical isolates of HSV type 2, at a multiplicity of infection of 0.1 plaque forming units/cell.
28 hours after infection the titre of infectious virus in the culture supernatants was determined by standard infectious centre techniques on fresh human embryonic lung fibroblasts.

[1] = stearic acid 100 µM, time relative to infection -8 hours
[2] = stearic acid 100 µM, time relative to infection -12 hours

CCCCCCCCCCCCCCCCCC(=O)O [stearic acid, octadecanoic acid]
inhibition at 100 µM [1]: 0%
inhibition at 100 µM [2]: 0%
virus yield (stearic acid 25 µM, time relative to infection 1 hours): 4.11 x 10^-3 / pfu ml^-1
virus yield (stearic acid 25 µM, time relative to infection 2 hours): 4.31 x 10^-3 / pfu ml^-1
virus yield (stearic acid 25 µM, time relative to infection 3 hours): 3.89 x 10^-3 / pfu ml^-1
virus yield (stearic acid 25 µM, time relative to infection 4 hours): 4.26 x 10^-3 / pfu ml^-1
virus yield (stearic acid 25 µM, time relative to infection 8 hours): 4.41 x 10^-3 / pfu ml^-1
virus yield (stearic acid 25 µM, time relative to infection 12 hours): 4.21 x 10^-3 / pfu ml^-1
virus yield (stearic acid 25 µM, time relative to infection -1 hours): 4.06 x 10^-3 / pfu ml^-1
virus yield (stearic acid 25 µM, time relative to infection -2 hours): 3.72 x 10^-3 / pfu ml^-1
virus yield (stearic acid 25 µM, time relative to infection -3 hours): 4.15 x 10^-3 / pfu ml^-1
virus yield (stearic acid 25 µM, time relative to infection -4 hours): 4.25 x 10^-3 / pfu ml^-1
virus yield (stearic acid 25 µM, time relative to infection -8 hours): 3.88 x 10^-3 / pfu ml^-1
virus yield (stearic acid 25 µM, time relative to infection -12 hours): 4.63 x 10^-3 / pfu ml^-1
virus yield (stearic acid 50 µM, time relative to infection 0 hours): 4.00 x 10^-3 / pfu ml^-1
virus yield (stearic acid 50 µM, time relative to infection 1 hours): 3.96 x 10^-3 / pfu ml^-1
virus yield (stearic acid 50 µM, time relative to infection 2 hours): 4.45 x 10^-3 / pfu ml^-1
virus yield (stearic acid 50 µM, time relative to infection 3 hours): 3.88 x 10^-3 / pfu ml^-1
virus yield (stearic acid 50 µM, time relative to infection 4 hours): 4.36 x 10^-3 / pfu ml^-1
virus yield (stearic acid 50 µM, time relative to infection 8 hours): 4.09 x 10^-3 / pfu ml^-1
virus yield (stearic acid 50 µM, time relative to infection 12 hours): 3.92 x 10^-3 / pfu ml^-1
virus yield (stearic acid 50 µM, time relative to infection -1 hours): 3.14 x 10^-3 / pfu ml^-1
virus yield (stearic acid 50 µM, time relative to infection -2 hours): 3.02 x 10^-3 / pfu ml^-1
virus yield (stearic acid 50 µM, time relative to infection -3 hours): 3.15 x 10^-3 / pfu ml^-1
virus yield (stearic acid 50 µM, time relative to infection -4 hours): 3.98 x 10^-3 / pfu ml^-1
virus yield (stearic acid 50 µM, time relative to infection -8 hours): 4.62 x 10^-3 / pfu ml^-1
virus yield (stearic acid 50 µM, time relative to infection -12 hours): 4.75 x 10^-3 / pfu ml^-1
virus yield (stearic acid 75 µM, time relative to infection 0 hours): 3.55 x 10^-3 / pfu ml^-1
virus yield (stearic acid 75 µM, time relative to infection 1 hours): 4.44 x 10^-3 / pfu ml^-1
virus yield (stearic acid 75 µM, time relative to infection 2 hours): 3.92 x 10^-3 / pfu ml^-1
virus yield (stearic acid 75 µM, time relative to infection 3 hours): 4.53 x 10^-3 / pfu ml^-1
virus yield (stearic acid 75 µM, time relative to infection 4 hours): 4.21 x 10^-3 / pfu ml^-1
virus yield (stearic acid 75 µM, time relative to infection 8 hours): 3.87 x 10^-3 / pfu ml^-1
virus yield (stearic acid 75 µM, time relative to infection 12 hours): 4.11 x 10^-3 / pfu ml^-1
virus yield (stearic acid 75 µM, time relative to infection -1 hours): 2.54 x 10^-3 / pfu ml^-1
virus yield (stearic acid 75 µM, time relative to infection -2 hours): 2.69 x 10^-3 / pfu ml^-1
virus yield (stearic acid 75 µM, time relative to infection -3 hours): 2.31 x 10^-3 / pfu ml^-1
virus yield (stearic acid 75 µM, time relative to infection -4 hours): 2.25 x 10^-3 / pfu ml^-1
virus yield (stearic acid 75 µM, time relative to infection -8 hours): 4.18 x 10^-3 / pfu ml^-1
virus yield (stearic acid 75 µM, time relative to infection -12 hours): 3.96 x 10^-3 / pfu ml^-1
virus yield (stearic acid 100 µM, time relative to infection 0 hours): 3.85 x 10^-3 / pfu ml^-1
virus yield (stearic acid 100 µM, time relative to infection 1 hours): 3.71 x 10^-3 / pfu ml^-1
virus yield (stearic acid 100 µM, time relative to infection 2 hours): 3.96 x 10^-3 / pfu ml^-1
virus yield (stearic acid 100 µM, time relative to infection 3 hours): 3.83 x 10^-3 / pfu ml^-1
virus yield (stearic acid 100 µM, time relative to infection 4 hours): 4.52 x 10^-3 / pfu ml^-1
virus yield (stearic acid 100 µM, time relative to infection 8 hours): 4.03 x 10^-3 / pfu ml^-1
virus yield (stearic acid 100 µM, time relative to infection 12 hours): 4.28 x 10^-3 / pfu ml^-1
virus yield (stearic acid 100 µM, time relative to infection -1 hours): 3.04 x 10^-3 / pfu ml^-1
virus yield (stearic acid 100 µM, time relative to infection -2 hours): 2.77 x 10^-3 / pfu ml^-1
virus yield (stearic acid 100 µM, time relative to infection -3 hours): 2.80 x 10^-3 / pfu ml^-1
virus yield (stearic acid 100 µM, time relative to infection -4 hours): 3.45 x 10^-3 / pfu ml^-1
virus yield [1]: 4.33 x 10^-3 / pfu ml^-1
virus yield [2]: 4.72 x 10^-3 / pfu ml^-1
